The assay has as its target T1, human PAD4 (Homo sapiens, UniProt Q9UM07).
T1 construct: human PAD4 (NM_012387), A2P663, was PCR amplified; His-SUMO (N, cleaved yes); made in house; host or cells: E. coli BL21(DE3)
Put plainly: In vitro PAD4 BAEE biochemical assay. To be noted: human PAD4, BAEE substrate; 5 nM PAD4, 2 mM calcium chloride, 3 mM BAEE; geometric mean of multiple experiments. The method in brief:
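Ammonia generated from BAEE serves as the readout, measured by o-phthalaldehyde after EDTA termination. Final conditions: 5 nM human PAD4 (SUMO tag cleaved), 2 mM CaCl2, 3 mM BAEE, pH 7.6 MOPS buffer, 25 °C for 2 h following a 30-min compound preincubation.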

For orientation: IC50 means the concentration that inhibits the measured activity by half.

T1 sequence (Q9UM07 2-663): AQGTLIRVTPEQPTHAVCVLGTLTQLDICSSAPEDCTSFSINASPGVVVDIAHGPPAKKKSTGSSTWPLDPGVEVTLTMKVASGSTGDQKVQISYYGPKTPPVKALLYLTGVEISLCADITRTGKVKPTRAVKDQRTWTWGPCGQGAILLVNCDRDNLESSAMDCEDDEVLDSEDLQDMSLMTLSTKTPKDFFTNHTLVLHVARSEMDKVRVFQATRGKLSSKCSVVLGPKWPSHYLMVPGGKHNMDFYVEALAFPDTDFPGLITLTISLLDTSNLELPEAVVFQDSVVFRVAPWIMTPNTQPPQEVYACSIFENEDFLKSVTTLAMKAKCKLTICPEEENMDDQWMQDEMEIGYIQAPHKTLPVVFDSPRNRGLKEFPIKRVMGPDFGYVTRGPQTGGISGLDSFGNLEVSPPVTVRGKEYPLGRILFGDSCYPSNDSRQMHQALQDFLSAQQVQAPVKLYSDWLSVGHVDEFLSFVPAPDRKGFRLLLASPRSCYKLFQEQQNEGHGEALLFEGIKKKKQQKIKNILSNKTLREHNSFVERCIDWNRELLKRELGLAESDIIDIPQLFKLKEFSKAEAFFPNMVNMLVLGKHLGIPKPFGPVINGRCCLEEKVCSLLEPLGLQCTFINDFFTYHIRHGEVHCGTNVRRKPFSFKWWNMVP

For the compound `CCc1ccc2cc(-c3nc4cc(C(=O)N5CCC6(CC6)[C@@H](N)C5)cc(OC)n4c3C)n(CC3CC3)c2n1` [Example 592, [(8~{R})-8-amino-6-azaspiro[2.5]octan-6-yl]-[2-[1-(cyclopropylmethyl)-6-ethylpyrrolo[2,3-b]pyridin-2-yl]-5-methoxy-3-methylimidazo[1,2-a]pyridin-7-yl]methanone], the 50% inhibitory concentration (IC50) was found to be 9000 nM.
`CCc1ccc2cc(-c3nc4cc(C(=O)N5CC6(N)CCC5CC6)cc(OC)n4c3C)n(CC3CC3)c2n1` [Example 593, (4-amino-2-azabicyclo[2.2.2]octan-2-yl)-[2-[1-(cyclopropylmethyl)-6-ethylpyrrolo[2,3-b]pyridin-2-yl]-5-methoxy-3-methylimidazo[1,2-a]pyridin-7-yl]methanone]: the IC50 stood at 1900 nM.
Turning to `CCc1ccc2cc(-c3nc4cc(C(=O)N5CC6(CCCNC6)C5)cc(OC)n4c3C)n(CC3CC3)c2n1` [Example 594, [2-[1-(cyclopropylmethyl)-6-ethylpyrrolo[2,3-b]pyridin-2-yl]-5-methoxy-3-methylimidazo[1,2-a]pyridin-7-yl]-(2,8-diazaspiro[3.5]nonan-2-yl) methanone], the IC50 came out at 1700 nM.
As for `CCc1ccc2cc(-c3nc4cc(C(=O)N5CC6(CNCCO6)C5)cc(OC)n4c3C)n(CC3CC3)c2n1` [Example 595, [2-[1-(cyclopropylmethyl)-6-ethylpyrrolo[2,3-b]pyridin-2-yl]-5-methoxy-3-methylimidazo[1,2-a]pyridin-7-yl]-(5-oxa-2,8-diazaspiro[3.5]nonan-2-yl) methanone], the IC50 amounted to 31500 nM.
In the case of `COc1cc(C(=O)N2CCC[C@@H](N)C2)cc2nc(-c3cc4ccc(C(C)(F)F)nc4n3CC3CC3)c(C)n12` [Example 596, [(3~{R})-3-aminopiperidin-1-yl]-[2-[1-(cyclopropylmethyl)-6-(1,1-difluoroethyl)pyrrolo [2,3-b]pyridin-2-yl]-5-methoxy-3-methylimidazo [1,2-a]pyridin-7-yl] methanone], the IC50 turned out to be 997 nM.
As to `CCc1ccc2cc(-c3nc4cc(C(=O)N5CCC[C@@H](N)C5)ccn4c3C3CC3)n(CC3CC3)c2n1` [Example 597, [(3~{R})-3-aminopiperidin-1-yl]-[3-cyclopropyl-2-[1-(cyclopropylmethyl)-6-ethylpyrrolo[2,3-b]pyridin-2-yl]imidazo[1,2-a]pyridin-7-yl]methanone], the IC50 is 299 nM.
As for `CCOC(=O)CC(C)c1ccc2cc(-c3nc4cc(C(=O)N5CCC[C@@H](N)C5)cc(OC)n4c3C)n(CC3CC3)c2n1` (some centres unmarked) [Example 598, ethyl 3-[2-[7-[(3~{R})-3-aminopiperidine-1-carbonyl]-5-methoxy-3-methylimidazo [1,2-a]pyridin-2-yl]-1-(cyclopropylmethyl)pyrrolo [2,3-b]pyridin-6-yl] butanoate], the IC50 was found to be 312 nM.
Regarding `COc1cc(C(=O)N2CCC[C@@H](N)C2)cc2nc(-c3cc4ccc(Cl)nc4n3CC3CC3)c(C)n12` [Example 599, [(3~{R})-3-aminopiperidin-1-yl]-[2-[6-chloro-1-(cyclopropylmethyl)pyrrolo [2,3-b]pyridin-2-yl]-5-methoxy-3-methylimidazo[1,2-a]pyridin-7-yl]methanone], the IC50 is 1910 nM.
For `COc1cc(C(=O)N2CCC[C@@H](N)C2)cc2nc(-c3cc4ccc(-c5ccnc6c5CC(=O)N6)nc4n3CC3CC3)c(C)n12` [Example 600, 4-[2-[7-[(3~{R})-3-aminopiperidine-1-carbonyl]-5-methoxy-3-methylimidazo[1,2-a]pyridin-2-yl]-1-(cyclopropylmethyl)pyrrolo[2,3-b]pyridin-6-yl]-1,3-dihydropyrrolo[2,3-b] pyridin-2-one], the IC50 was 666 nM.
As to `COc1cc(C(=O)N2CCC[C@@H](N)C2)cc2nc(-c3cc4ccc(-c5cccc6c5CN(C)C6=O)nc4n3CC3CC3)c(C)n12` [Example 601, 4-[2-[7-[(3~{R})-3-aminopiperidine-1-carbonyl]-5-methoxy-3-methylimidazo[1,2-a]pyridin-2-yl]-1-(cyclopropylmethyl)pyrrolo[2,3-b]pyridin-6-yl]-2-methyl-3~{H}-isoindol-1-one], the IC50 turned out to be 6880 nM.
With `COc1cc(C(=O)N2CCC[C@@H](N)C2)cc2nc(-c3cc4ccc(-c5cccc6c5CNC6=O)nc4n3CC3CC3)c(C)n12` [Example 602, 4-[2-[7-[(3~{R})-3-aminopiperidine-1-carbonyl]-5-methoxy-3-methylimidazo[1,2-a]pyridin-2-yl]-1-(cyclopropylmethyl)pyrrolo[2,3-b]pyridin-6-yl]-2,3-dihydroisoindol-1-one], the IC50 was found to be 2150 nM.
Take `COc1cc(C(=O)N2CCC[C@@H](N)C2)cc2nc(-c3cc4ccc(-c5cccnc5C)nc4n3CC3CC3)c(C)n12` [Example 604, [(3~{R})-3-aminopiperidin-1-yl]-[2-[1-(cyclopropylmethyl)-6-(2-methylpyridin-3-yl)pyrrolo[2,3-b]pyridin-2-yl]-5-methoxy-3-methylimidazo[1,2-a]pyridin-7-yl]methanone]: the IC50 stood at 427 nM.
For `COc1cc(C(=O)N2CCC[C@@H](N)C2)cc2nc(-c3cc4ccc(-c5ccc(N)nc5C)nc4n3CC3CC3)c(C)n12` [Example 605, [2-[6-(6-amino-2-methylpyridin-3-yl)-1-(cyclopropylmethyl)pyrrolo[2,3-b]pyridin-2-yl]-5-methoxy-3-methylimidazo[1,2-a]pyridin-7-yl]-[(3~{R})-3-aminopiperidin-1-yl]methanone], the IC50 was found to be 518 nM.
For `COc1cc(C(=O)N2CCC[C@@H](N)C2)cc2nc(-c3cc4ccc(-c5cccnc5N5CCOCC5)nc4n3CC3CC3)c(C)n12` [Example 606, [(3~{R})-3-aminopiperidin-1-yl]-[2-[1-(cyclopropylmethyl)-6-(2-morpholin-4-ylpyridin-3-yl)pyrrolo[2,3-b]pyridin-2-yl]-5-methoxy-3-methylimidazo[1,2-a]pyridin-7-yl]methanone] the value was 373 nM; for `COc1cc(C(=O)N2CCC[C@@H](N)C2)cc2nc(-c3cc4ccc(-c5cccnc5-c5ccccc5)nc4n3CC3CC3)c(C)n12` [Example 607, [(3~{R})-3-aminopiperidin-1-yl]-[2-[1-(cyclopropylmethyl)-6-(2-phenylpyridin-3-yl)pyrrolo [2,3-b]pyridin-2-yl]-5-methoxy-3-methylimidazo[1,2-a]pyridin-7-yl]methanone], 345 nM.
For `COc1cc(C(=O)N2CCC[C@@H](N)C2)cc2nc(-c3cc4ccc(C(C)C)nc4n3CC3CC3)c(C)n12` [Example 608, [(3~{R})-3-aminopiperidin-1-yl]-[2-[1-(cyclopropylmethyl)-6-propan-2-ylpyrrolo [2,3-b]pyridin-2-yl]-5-methoxy-3-methylimidazo [1,2-a]pyridin-7-yl] methanone] the value was 544 nM; for `COc1cc(C(=O)N2C[C@H](N)CC[C@@H]2C)cc2nc(-c3cc4ccc(-c5c(C)nn(CC(N)=O)c5C)nc4n3CC3CC3)c(C)n12` [Example 609, 2-[4-[2-[7-[(2~{S}, 5~{R})-5-amino-2-methylpiperidine-1-carbonyl]-5-methoxy-3-methylimidazo [1,2-a]pyridin-2-yl]-1-(cyclopropylmethyl)pyrrolo [2,3-b]pyridin-6-yl]-3,5-dimethylpyrazol-1-yl]acetamide], 711 nM.
Consider `COc1cc(C(=O)N2C[C@H](N)CC[C@@H]2C)cc2nc(-c3cc4ccc(C#N)nc4n3CC3CC3)c(C)n12` [Example 610, 2-[7-[(2~{S},5~{R})-5-amino-2-methylpiperidine-1-carbonyl]-5-methoxy-3-methylimidazo[1,2-a]pyridin-2-yl]-1-(cyclopropylmethyl) pyrrolo[2,3-b] pyridine-6-carbonitrile], for which the IC50 is 4630 nM.
`COc1cc(C(=O)N2C[C@H](N)CC[C@@H]2C)cc2nc(-c3cc4ccc(-c5c(C)n[nH]c5C)nc4n3CC3CC3)c(C)n12` [Example 611, [(2~{S},5~{R})-5-amino-2-methylpiperidin-1-yl]-[2-[1-(cyclopropylmethyl)-6-(3,5-dimethyl-1~{H}-pyrazol-4-yl)pyrrolo[2,3-b]pyridin-2-yl]-5-methoxy-3-methylimidazo[1,2-a]pyridin-7-yl]methanone]: the IC50 is 726 nM.
On to `COc1cc(C(=O)N2C[C@H](N)CC[C@@H]2C)cc2nc(-c3cc4ccc(C5CC5)nc4n3CC3CC3)c(C)n12` [Example 612, [(2~{S},5~{R})-5-amino-2-methylpiperidin-1-yl]-[2-[6-cyclopropyl-1-(cyclopropylmethyl)pyrrolo [2,3-b]pyridin-2-yl]-5-methoxy-3-methylimidazo[1,2-a]pyridin-7-yl]methanone], for which the IC50 is 743 nM.
As for `CCc1ccc2cc(-c3nc4cc(C(=O)N5CCC[C@@H](N)C5)cc(OC)n4c3C)n(CC3CC3)c2n1` [Example 613, [(3~{R})-3-aminopiperidin-1-yl]-[2-[1-(cyclopropylmethyl)-6-ethylpyrrolo[2,3-b]pyridin-2-yl]-5-methoxy-3-methylimidazo [1,2-a]pyridin-7-yl] methanone], the IC50 was 302 nM.
As for `COc1cc(C(=O)N2C[C@H](N)CCN2C)cc2nc(-c3cc4ccc([C@@H](C)NC(=O)c5ccccc5)nc4n3CC3CC3)c(C)n12` [Example 614, N—((R)-1-(2-(7-((R)-5-amino-2-methylhexahydropyridazine-1-carbonyl)-5-methoxy-3-methylimidazo[1,2-a]pyridin-2-yl)-1-(cyclopropylmethyl)-1H-pyrrolo[2,3-b]pyridin-6-yl)ethyl)benzamide], the figure is 90.2 nM; as for `COc1cc(C(=O)N2C[C@H](N)CCN2C)cc2nc(-c3cc4ccc([C@@H](C)NC(=O)C56CC(F)(C5)C6)nc4n3CC3CC3)c(C)n12` [Example 615, N—((R)-1-(2-(7-((R)-5-amino-2-methylhexahydropyridazine-1-carbonyl)-5-methoxy-3-methylimidazo[1,2-a]pyridin-2-yl)-1-(cyclopropylmethyl)-1H-pyrrolo[2,3-b]pyridin-6-yl)ethyl)-3-fluorobicyclo[1.1.1]pentane-1-carboxamide], 69.6 nM.

Source of the values: patent US12240862B2, “Inhibitors of peptidylarginine deiminases” (Gilead Sciences, Inc., priority 2020, dated 2025).
